Reference: patent US20090196917A1, “Liposomal Formulations of Hydrophobic Lactone Drugs in the Presence of Metal Ions” (University of Kentucky Research Foundation, priority 2008, published 2009)
Where “and” joins values, the source holds several entries; their conditions need not be identical. Equal entries are not always repeated.

Columns and labels:
[1] = after 24 hrs, novel approach (active loading)
[2] = pH 7.4
[3] = after intravenous administration, animal data; cited from earlier work
[4] = Active loading of DB-67 into Ca(OAc)2 DSPC/m-PEG DSPE vesicles (Example 15); conditions: end of loading
[5] = Active loading of DB-67 into liposomes, calcium acetate gradient (Example 14); conditions: liposomes made by active loading procedure, pH and calcium ion gradient, 40° C.

CC[C@@]1(O)C(=O)OCc2c1cc1n(c2=O)Cc2c-1nc1ccc(O)cc1c2[Si](C)(C)C(C)(C)C [DB-67, silatecan 7-t-butyldimethylsilyl-10-hydroxycamptothecin]
retained drug [1]: approximately 50%
half-life for release (liposome retention) [2]: 22 ± 6 h
lactone to total AUC [3]: > 90%
intravesicular DB-67 concentration [4]: ~21 mM and ~10 mg/mL
suspension drug concentration (all drug being entrapped) [5]: ≤ 3 mM
